Results published in publication PMC3708311 (Journal of medicinal chemistry, 2008).

Columns and labels:
adrenergic receptor α1a = biological target: T1, adrenergic receptor α1a (Homo sapiens, UniProt P35348); experiment: nonkinase panel, adrenergic receptor α1a; type: binding
T1 sequence (P35348 1-466): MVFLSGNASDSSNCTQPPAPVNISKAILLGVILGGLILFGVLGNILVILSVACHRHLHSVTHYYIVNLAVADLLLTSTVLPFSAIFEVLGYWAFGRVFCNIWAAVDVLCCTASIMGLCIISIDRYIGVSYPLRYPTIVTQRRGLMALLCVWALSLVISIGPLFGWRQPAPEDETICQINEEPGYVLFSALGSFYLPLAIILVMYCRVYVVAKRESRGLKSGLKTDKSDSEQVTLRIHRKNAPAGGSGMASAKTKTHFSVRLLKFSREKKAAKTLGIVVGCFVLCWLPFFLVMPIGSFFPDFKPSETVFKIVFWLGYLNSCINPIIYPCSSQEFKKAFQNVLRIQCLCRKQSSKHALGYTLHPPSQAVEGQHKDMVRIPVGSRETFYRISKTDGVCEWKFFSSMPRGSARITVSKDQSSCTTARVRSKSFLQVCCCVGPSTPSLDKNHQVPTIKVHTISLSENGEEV

Akt3 = Akt3 (Homo sapiens, UniProt Q9Y243); experiment: Ambit kinase screen, single-point, Akt3; type: binding; details: read-out: percentage inhibition Akt3
Akt3, sequence (Q9Y243 whole entry): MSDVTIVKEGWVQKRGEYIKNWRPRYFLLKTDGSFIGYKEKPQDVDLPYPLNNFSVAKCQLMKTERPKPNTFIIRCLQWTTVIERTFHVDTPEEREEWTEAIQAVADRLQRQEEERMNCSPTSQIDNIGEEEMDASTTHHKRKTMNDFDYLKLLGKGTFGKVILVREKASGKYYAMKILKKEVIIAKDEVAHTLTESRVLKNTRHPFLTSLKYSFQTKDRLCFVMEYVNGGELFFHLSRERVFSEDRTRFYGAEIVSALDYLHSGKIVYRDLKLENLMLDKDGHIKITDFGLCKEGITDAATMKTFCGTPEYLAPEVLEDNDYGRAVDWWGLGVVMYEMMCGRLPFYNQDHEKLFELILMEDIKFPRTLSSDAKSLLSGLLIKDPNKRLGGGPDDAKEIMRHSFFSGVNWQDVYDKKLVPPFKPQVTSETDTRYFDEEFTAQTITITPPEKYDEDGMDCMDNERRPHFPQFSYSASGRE

Clk1 = Clk1 (Homo sapiens, UniProt P49759); experiment: Ambit kinase screen, single-point, Clk1; type: binding; details: read-out: percentage inhibition Clk1
Clk1, sequence (P49759 whole entry): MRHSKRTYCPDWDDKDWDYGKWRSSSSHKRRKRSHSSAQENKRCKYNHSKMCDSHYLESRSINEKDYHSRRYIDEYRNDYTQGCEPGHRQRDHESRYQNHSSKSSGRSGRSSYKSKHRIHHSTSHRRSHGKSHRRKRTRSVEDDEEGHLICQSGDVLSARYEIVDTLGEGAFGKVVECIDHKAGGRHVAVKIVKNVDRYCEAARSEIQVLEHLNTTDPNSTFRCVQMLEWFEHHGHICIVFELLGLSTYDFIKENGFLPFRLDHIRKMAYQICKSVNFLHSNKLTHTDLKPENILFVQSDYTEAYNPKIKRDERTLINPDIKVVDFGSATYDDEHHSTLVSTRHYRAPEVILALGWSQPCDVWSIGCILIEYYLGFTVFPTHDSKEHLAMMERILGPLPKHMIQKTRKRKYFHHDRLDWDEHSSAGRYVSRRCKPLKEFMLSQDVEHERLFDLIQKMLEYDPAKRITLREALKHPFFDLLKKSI

adrenergic receptor α2a = biological target: T2, adrenergic receptor α2a (Homo sapiens, UniProt P08913); experiment: nonkinase panel, adrenergic receptor α2a; type: binding
T2 sequence (P08913 1-465): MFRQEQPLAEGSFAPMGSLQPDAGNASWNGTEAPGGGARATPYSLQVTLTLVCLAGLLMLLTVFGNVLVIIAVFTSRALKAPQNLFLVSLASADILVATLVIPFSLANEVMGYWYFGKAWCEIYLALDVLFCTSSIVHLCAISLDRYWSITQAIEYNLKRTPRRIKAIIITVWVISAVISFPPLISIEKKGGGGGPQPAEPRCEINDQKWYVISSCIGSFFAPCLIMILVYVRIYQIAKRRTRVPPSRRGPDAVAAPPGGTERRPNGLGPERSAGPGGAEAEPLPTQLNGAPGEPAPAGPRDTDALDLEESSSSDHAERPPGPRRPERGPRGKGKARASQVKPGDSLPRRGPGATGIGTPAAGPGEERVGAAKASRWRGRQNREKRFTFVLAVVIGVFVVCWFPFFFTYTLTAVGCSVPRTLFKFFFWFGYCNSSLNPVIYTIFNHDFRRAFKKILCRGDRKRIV

353 kinases = experiment: profiling versus 353 kinases; type: binding; details: 3 µM
adrenergic receptor α1b = biological target: T3, adrenergic receptor α1b (Homo sapiens, UniProt P35368); experiment: nonkinase panel, adrenergic receptor α1b; type: binding
T3 sequence (P35368 1-520): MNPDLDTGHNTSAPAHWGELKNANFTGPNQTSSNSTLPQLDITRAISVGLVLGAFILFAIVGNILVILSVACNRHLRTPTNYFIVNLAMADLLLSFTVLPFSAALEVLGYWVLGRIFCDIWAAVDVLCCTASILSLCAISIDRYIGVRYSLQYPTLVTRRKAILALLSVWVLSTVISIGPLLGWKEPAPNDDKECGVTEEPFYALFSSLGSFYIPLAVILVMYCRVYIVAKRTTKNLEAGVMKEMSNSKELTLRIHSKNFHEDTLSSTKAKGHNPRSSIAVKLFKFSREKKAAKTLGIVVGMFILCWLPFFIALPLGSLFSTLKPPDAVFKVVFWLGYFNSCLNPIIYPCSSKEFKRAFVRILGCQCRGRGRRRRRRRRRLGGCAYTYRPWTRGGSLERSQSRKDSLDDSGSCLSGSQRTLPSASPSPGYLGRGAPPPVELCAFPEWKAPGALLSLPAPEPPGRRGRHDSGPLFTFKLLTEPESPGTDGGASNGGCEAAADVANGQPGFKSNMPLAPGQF

Clk2 = Clk2 (Homo sapiens, UniProt P49760); experiment: Ambit kinase screen, single-point, Clk2; type: binding; details: read-out: percentage inhibition Clk2
Clk2, sequence (P49760 whole entry, the tested form may be a part): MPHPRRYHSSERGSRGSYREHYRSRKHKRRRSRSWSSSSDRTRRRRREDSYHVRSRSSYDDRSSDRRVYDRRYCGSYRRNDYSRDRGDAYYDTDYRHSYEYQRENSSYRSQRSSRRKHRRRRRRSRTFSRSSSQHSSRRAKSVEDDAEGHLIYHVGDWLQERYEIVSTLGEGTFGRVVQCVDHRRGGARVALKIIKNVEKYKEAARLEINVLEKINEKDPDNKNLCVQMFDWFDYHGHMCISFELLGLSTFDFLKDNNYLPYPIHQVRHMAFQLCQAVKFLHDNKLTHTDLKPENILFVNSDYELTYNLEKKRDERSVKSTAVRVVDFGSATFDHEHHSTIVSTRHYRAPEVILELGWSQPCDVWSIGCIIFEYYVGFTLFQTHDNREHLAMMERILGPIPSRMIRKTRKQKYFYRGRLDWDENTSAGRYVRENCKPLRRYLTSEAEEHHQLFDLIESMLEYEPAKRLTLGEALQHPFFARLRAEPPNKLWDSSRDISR

[1] = tested on: p-MLC in trabecular meshwork tissue; experiment: Western blot analysis of p-MLC in TM tissue from perfused porcine eyes; details: 25 µM, perfused at 15 mmHg for 5 h
[2] = tested on: aqueous humor outflow facility from the trabecular meshwork; experiment: ex vivo aqueous humor outflow facility in perfused enucleated porcine eyes; details: 25 µM continuous exposure, 2–5 h time points, p < 0.01, porcine eyes ex vivo
Clk4 = Clk4 (Homo sapiens, UniProt Q9HAZ1); experiment: Ambit kinase screen, single-point, Clk4; type: binding; details: read-out: percentage inhibition Clk4
Clk4, sequence (Q9HAZ1 whole entry): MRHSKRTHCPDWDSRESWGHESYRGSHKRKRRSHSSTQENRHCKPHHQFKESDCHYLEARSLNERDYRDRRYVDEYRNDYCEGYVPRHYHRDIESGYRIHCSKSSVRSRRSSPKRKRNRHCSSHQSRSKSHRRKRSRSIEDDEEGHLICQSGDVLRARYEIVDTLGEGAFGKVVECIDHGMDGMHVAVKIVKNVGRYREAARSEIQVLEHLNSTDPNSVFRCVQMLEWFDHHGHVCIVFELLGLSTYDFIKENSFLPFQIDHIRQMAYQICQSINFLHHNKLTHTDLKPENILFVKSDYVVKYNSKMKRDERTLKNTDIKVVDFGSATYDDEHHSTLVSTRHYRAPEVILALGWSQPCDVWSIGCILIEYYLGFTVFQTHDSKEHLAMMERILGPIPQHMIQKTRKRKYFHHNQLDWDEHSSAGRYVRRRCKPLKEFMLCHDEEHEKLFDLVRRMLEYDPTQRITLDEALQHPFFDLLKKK

[3] = tested on: myosin light chain bisphosphorylation (ppMLC); experiment: cell-based myosin light chain bisphosphorylation; details: read-out: ppMLC cell-based IC50
Lats2 = biological target: T4, Lats2 (Homo sapiens, UniProt Q9NRM7); experiment: Ambit kinase screen, single-point, Lats2; type: binding; details: read-out: percentage inhibition Lats2
T4 sequence (Q9NRM7 1-1088): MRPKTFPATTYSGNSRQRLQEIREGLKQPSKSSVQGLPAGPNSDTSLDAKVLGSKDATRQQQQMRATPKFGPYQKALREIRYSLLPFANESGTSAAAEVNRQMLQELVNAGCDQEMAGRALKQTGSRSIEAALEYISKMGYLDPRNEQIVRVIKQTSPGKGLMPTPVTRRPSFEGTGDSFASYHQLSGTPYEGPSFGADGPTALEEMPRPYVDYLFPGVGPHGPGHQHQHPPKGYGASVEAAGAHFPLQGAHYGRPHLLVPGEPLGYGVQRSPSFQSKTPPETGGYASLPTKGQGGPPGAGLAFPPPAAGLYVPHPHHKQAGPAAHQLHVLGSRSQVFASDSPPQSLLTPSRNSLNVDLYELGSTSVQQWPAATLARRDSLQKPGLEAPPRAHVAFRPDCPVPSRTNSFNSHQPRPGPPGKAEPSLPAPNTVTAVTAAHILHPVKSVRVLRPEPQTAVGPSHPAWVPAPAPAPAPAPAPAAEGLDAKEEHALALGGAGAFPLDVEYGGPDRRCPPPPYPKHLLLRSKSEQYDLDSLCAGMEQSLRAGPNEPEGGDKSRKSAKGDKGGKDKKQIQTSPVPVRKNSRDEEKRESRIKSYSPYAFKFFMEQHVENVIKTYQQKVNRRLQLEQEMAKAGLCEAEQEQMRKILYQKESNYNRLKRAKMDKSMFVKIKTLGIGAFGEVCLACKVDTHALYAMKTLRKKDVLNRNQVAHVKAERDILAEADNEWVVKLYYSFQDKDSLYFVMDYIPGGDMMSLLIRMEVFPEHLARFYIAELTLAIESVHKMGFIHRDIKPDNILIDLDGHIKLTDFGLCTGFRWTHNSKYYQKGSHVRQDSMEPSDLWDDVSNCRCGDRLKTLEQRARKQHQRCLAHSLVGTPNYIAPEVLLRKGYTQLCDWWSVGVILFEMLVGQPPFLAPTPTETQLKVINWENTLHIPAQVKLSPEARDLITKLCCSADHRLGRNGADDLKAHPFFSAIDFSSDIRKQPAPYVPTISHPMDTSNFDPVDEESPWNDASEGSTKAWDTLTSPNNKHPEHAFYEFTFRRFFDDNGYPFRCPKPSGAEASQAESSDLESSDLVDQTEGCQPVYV

ROCK-II = ROCK-II (Homo sapiens, UniProt O75116); experiment: ROCK-II biochemical assay; details: ROCK-II IC50, as given in text
ROCK-II, sequence (O75116 whole entry, species assumed): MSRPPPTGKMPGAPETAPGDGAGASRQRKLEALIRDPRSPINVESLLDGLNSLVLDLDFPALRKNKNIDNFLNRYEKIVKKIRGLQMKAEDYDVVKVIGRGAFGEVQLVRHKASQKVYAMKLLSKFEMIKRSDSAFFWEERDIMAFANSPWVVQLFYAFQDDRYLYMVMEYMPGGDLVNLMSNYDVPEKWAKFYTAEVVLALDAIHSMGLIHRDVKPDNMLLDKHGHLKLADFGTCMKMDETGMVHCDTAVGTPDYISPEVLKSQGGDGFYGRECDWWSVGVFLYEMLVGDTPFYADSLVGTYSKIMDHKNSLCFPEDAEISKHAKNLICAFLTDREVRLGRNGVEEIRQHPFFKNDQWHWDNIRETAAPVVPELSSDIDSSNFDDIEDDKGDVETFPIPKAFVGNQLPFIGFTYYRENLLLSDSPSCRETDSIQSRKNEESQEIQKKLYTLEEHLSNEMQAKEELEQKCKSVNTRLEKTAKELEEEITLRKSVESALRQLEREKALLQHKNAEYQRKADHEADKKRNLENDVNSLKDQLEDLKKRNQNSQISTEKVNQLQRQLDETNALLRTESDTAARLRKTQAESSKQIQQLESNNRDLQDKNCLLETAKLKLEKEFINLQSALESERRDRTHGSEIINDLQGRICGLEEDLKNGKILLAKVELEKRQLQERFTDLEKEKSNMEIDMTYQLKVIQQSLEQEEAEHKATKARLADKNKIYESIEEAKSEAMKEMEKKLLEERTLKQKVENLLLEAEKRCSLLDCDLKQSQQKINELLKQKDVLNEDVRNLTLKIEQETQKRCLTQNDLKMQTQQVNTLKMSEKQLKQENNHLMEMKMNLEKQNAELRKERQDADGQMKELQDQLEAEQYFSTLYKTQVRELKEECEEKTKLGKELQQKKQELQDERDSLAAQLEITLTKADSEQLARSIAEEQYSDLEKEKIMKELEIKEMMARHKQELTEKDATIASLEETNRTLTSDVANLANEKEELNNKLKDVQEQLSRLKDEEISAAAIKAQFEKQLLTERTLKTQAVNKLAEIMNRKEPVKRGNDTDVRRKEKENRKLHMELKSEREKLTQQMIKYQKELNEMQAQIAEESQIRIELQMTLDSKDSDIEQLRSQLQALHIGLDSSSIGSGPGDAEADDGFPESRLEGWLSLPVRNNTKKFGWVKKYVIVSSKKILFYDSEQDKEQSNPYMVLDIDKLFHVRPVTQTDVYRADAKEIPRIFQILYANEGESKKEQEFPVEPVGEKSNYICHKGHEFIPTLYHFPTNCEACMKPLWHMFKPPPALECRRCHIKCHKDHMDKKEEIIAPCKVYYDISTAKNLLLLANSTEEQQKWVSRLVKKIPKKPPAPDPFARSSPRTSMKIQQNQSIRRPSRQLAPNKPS

In the case of `CN(C)CCOc1cc(-c2cn[nH]c2)ccc1NC(=O)C1COc2ccccc2O1` (centres unmarked) [Compound 5], the IC50 (adrenergic receptor α1a) is reported as ~1000 nM, the inhibition at 3 µM (Akt3) is reported as > 50% and the inhibition at 3 µM (Clk1) is reported as > 50%. For the same molecule, the IC50 (adrenergic receptor α2a) was ~1000 nM, the off-target hit rate (353 kinases; 353 kinases, hits = inhibition greater than 50%) was 1.4% and the “inhibition of all other kinases of the panel” value (353 kinases; single-point, no or very low inhibition) was < 10%. For the same molecule, the IC50 (adrenergic receptor α1b) was ~1000 nM, the inhibition at 3 µM (Clk2) was > 50% and the “inhibition of Rho kinase in the TM tissue (p-MLC Western blot)” value [1] was “greater than 90%”. For the same molecule, the “increase of aqueous humor outflow facility” value [2] was 70–80%, the inhibition at 3 µM (Clk4) was > 50% and the IC50 [3] was ~3 nM. For the same molecule, the inhibition at 3 µM (Lats2) was > 50% and the IC50 (ROCK-II) was ~3 nM.
